Measured values published in patent US20250332265A1, “PSMA TARGETED CONJUGATE COMPOUNDS AND USES THEREOF” (priority 2021, published 2025).

What was measured:
[1] = biological target: T1, human liver cathespin (Homo sapiens, UniProt P07858); test: Cathepsin cleavage studies, Example 2; format: in vitro ADME; conditions: 37° C., HPLC
T1 construct: purchased Anthens Research and Technology, Anthens, GA; host or cells: human liver (tissue-derived enzyme)
Description: Enzymatic cleavage study of PSMA-1-MMAE-IR700 was performed as previously described. PSMA-1-MMAE-IR700 was incubated with activated human liver cathespin (Anthens Research and Technology, Anthens, GA) at 37° C. At different incubation time, 40 μL of the solution was placed into tubes loaded with 1 μL of 1 mM E64 protease inhibitor. The mixture was vortexed and then stored at −80° C. for future HPLC analysis. Studies were performed in triplicate. In vitro cellular uptake studies cells were plated on coverslips at about 60-70% confluency. Twenty-four hours later, cells were incubated with 50 nM of PSMA-1-MMAE-IR700. After incubation for various times (15 min, 30 min, 1 h and 4 h), cells were washed twice with cold RPMI 1640, fixed with 4% paraformaldehyde and counterstained with 4′,6-diamidino-2-phenylindole (DAPI). Images were taken using a Leica DM4000B fluorescence microscope (Leica Biosystems, Buffalo Gove, IL) at 40×. Blocking experiments were performed by co-incubation of cells with 50 nM of PSMA-1-MMAE-IR700 and 100× of PSMA-1 ligand. Studies were performed in triplicate.

[2] = In vitro cytotoxicity studies (CellTiter 96) with or without 690 nm light, PC3pip; format: cell-based, human; conditions: 24 h in the dark, no light; read-out: IC50 dark cytotoxicity, PC3pip cells
Description: (§1) PC3pip and PC3flu cells were plated at 3,000 cells/well in 96-well plates. Twenty-four hours later, drugs (PSMA-1-MMAE-IR700 or PSMA-1-IR700) of different concentrations were added. After incubation at 37° C. in the dark for 24 h, cell viability was determined by CellTiter 96© aqueous one solution cell proliferation assay using absorbance at 490 nm (Promega Biotech, Madison, […]). The concentration required to inhibit 50% of cell growth (IC50) was determined by GraphPad Prism 3.0. To test the cytotoxicity of PSMA-1-MMAE-TR700 with light irradiation, drugs at a final concentration of 5 nM were added to cells and incubated in the dark for 24 h. Cells were then washed 3 times with RMPI 1640 and then irradiated with 690 nm light (L690-66-60, Marubeni America Co, New York, NY). Cells were incubated in the dark for another 24 h. Cell viability was then determined by CellTiter 96© aqueous one solution cell proliferation assay (Promega Biotech, Madison, […]). The coefficient drug interaction (CDI) was calculated as follows: CDI=AB/(A×B), where AB is the ratio of the absorbance of combination treatment groups (PSMA-1-MMAE-IR700 with light irradiation) to the absorbance of control groups; A or B is the absorbance of single treatment group (PSMA-1-MMAE-IR700 without light or PSMA-1-IR700 with light irradiation) to the absorbance of control groups. CDI <1, =1 and >1 indicates synergistic, additive or antagonistic effect.

[3] = system: PSMA-positive PC3pip cells; test: as above; format: cell-based, human; conditions: for ratio of absorbance to control groups (cell viability): 5 nM, 24 h
Description: as §1

CC[C@H](C)[C@@H]([C@@H](CC(=O)N1CCC[C@H]1[C@H](OC)[C@@H](C)C(=O)N[C@H](C)[C@@H](O)c1ccccc1)OC)N(C)C(=O)[C@@H](NC(=O)[C@H](C(C)C)N(C)C(=O)OCc1ccc(NC(=O)[C@H](CCCNC(N)=O)NC(=O)[C@@H](NC(=O)CCCCCN2C(=O)CC(SC[C@H](NC(=O)[C@H](CCC(=O)O)NC(=O)[C@H](CCC(=O)O)NC(=O)[C@H](CCC(=O)O)NC(=O)CCCCCNC(=O)[C@H]3CC[C@H](CNC(=O)CC[C@H](NC(=O)N[C@@H](CCC(=O)O)C(=O)O)C(=O)O)CC3)C(=O)NCCCCCC(=O)N[C@@H](CCCCNC(=O)CCCCCNC(=O)OCCCOc3cccc4c5n6c(c34)=NC3=NC(=Nc4c7ccccc7c(n4[Si]6(O[Si](C)(C)CCC[N+](CCCS(=O)(=O)[O-])(CCCS(=O)(=O)O)CCCS(=O)(=O)O)O[Si](C)(C)CCC[N+](CCCS(=O)(=O)[O-])(CCCS(=O)(=O)O)CCCS(=O)(=O)O)N=C4N=C(N=5)c5ccccc54)c4ccccc43)C(N)=O)C2=O)C(C)C)cc1)C(C)C (some centres unmarked) [PSMA-1-MMAE-IR700]
degradation in the presence of cathepsin [1]: degraded rapidly | IC50 [2]: 8.42 ± 1.03 nM | ratio of absorbance to control groups (cell viability) ([3]; 690 nm light 1 J/cm2): 0.423 | ratio of absorbance to control groups (cell viability) ([3]; 690 nm light 3 J/cm2): 0.208 | ratio of absorbance to control groups (cell viability) ([3]; without light): 0.892 | coefficient drug interaction (CDI) ([3]; 1 J/cm2 light irradiation): 0.609 | coefficient drug interaction (CDI) ([3]; 3 J/cm2 light irradiation): 0.550 | selectivity of killing PC3pip versus PC3flu cells ([3]; 72 h in the dark): 50 fold
